Our source for the Kd values is PubChem BioAssay AID1033 (Sanford-Burnham Center for Chemical Genomics, 2008).

Activity calls are given as the source filed them. How the calls were made is not given here.

This assay concerns the target Chaperone protein DnaK (Escherichia coli (strain K12)) (UniProt P0A6Y8). In words: E. coli DnaK SBD ligand binding – biophysical, NMR, chaperone (AID 1033). The note with it: Purified DnaK SBD.

Chaperone protein DnaK (Escherichia coli (strain K12)), sequence (P0A6Y8 whole entry, looked up): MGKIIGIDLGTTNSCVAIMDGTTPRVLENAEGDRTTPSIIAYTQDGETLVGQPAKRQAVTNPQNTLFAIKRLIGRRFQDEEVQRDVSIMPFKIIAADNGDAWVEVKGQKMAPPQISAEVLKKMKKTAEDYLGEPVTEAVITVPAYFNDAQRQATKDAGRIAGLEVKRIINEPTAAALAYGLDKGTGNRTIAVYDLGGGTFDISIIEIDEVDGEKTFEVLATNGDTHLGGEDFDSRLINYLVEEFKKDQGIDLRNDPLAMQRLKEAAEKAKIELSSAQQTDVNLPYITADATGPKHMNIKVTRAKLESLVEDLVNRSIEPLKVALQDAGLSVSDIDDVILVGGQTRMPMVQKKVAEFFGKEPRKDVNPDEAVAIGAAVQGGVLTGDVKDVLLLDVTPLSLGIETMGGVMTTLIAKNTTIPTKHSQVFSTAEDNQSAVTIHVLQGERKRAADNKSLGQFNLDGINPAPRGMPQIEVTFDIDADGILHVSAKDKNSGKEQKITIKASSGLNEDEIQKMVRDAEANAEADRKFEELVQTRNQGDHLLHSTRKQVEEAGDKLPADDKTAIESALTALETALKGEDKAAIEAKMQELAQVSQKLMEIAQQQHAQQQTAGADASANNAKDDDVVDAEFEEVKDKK

In general, Kd refers to the equilibrium constant for the complex coming apart. With `C[C@H]1O[C@@H](O[C@H]2[C@@H](O)C[C@H](O[C@H]3[C@@H](O)C[C@H](O[C@H]4CC[C@]5(C)C6CC[C@]7(C)[C@@H](C8=CC(=O)OC8)CC[C@]7(O)C6CC[C@@H]5C4)O[C@@H]3C)O[C@@H]2C)C[C@H](O)[C@@H]1O` (stereo partly specified), the Kd was > 4 mM (inactive).
Next, `O=C(c1ccc(Cl)s1)N1CCOCC1`: > 4 mM (inactive); `COc1ccc(-c2cc(=O)c3c(OC)c(OC)c(OC)c(OC)c3o2)cc1OC`: > 4 mM (inactive); `CNC(=S)Nc1ccc(C(=O)O)cc1`: > 4 mM (inactive).
As for `Nc1cc(=O)[nH]c(=S)n1-c1ccc(F)cc1`, the Kd is > 4 mM (inactive).
Next, `N/C(=N/O)C1COc2ccccc2O1` (stereo unspecified): > 4 mM (inactive); `Cc1occc1C(=O)NC1CCN(C)CC1`: > 4 mM (inactive).
On to `CC(C)NC(=O)c1nc2ccccc2s1`, for which the Kd was > 4 mM (inactive).
Next, `O=c1ccc2c([nH]1)CCCC2`: > 4 mM (inactive); `Cc1c(-c2ccc(F)cc2)[n+](=O)c2c(n1[O-])CCC2`: > 4 mM (inactive); `O=C(Nc1ccon1)c1csc2ccccc12`: > 4 mM (inactive).
Next, `c1ccc(CCNc2ncnc3nc[nH]c23)cc1`: > 4 mM (inactive); `CCOC(=O)c1c(C)cc(O)cc1O`: > 4 mM (inactive).
Next, `Fc1ccc(CN2CCCNCC2)cc1`: > 4 mM (inactive).
Regarding `O=[n+]1cc(C2=CC=CCC2)n([O-])c2c1CCCCC2`, the Kd was > 4 mM (inactive).
In the case of `Cc1csc(NC(=O)c2cccs2)n1` it was > 4 mM (inactive).
Next, `O=C1CNCc2[nH]c3ccccc3c2N1c1ccccc1`: > 4 mM (inactive); `CC(=O)Oc1ccccc1N1C(=O)C=CC1=O`: > 4 mM (inactive); `CCc1ccc(C(=O)N2CCCC2)s1`: > 4 mM (inactive).
In the case of `Cc1n[nH]c(C)c1N` it was > 4 mM (inactive); in that of `C=Cc1c(C)c2cc3[nH]c(cc4nc(cc5nc(cc1[nH]2)C(C)=C5CCC(=O)O)C(CCC(=O)O)=C4C)c(C)c3C=C`, > 4 mM (inactive); in that of `CCOC(=O)CNc1ncnc2c1nnn2CC`, > 4 mM (inactive).
On to `O=C1CSC(=Nc2cccc(C(=O)O)c2)N1`, for which the Kd is > 4 mM (inactive).
In the case of `CC(=O)N1CCc2ccccc2C1CC(=O)O` (stereo unspecified) it was > 4 mM (inactive); in that of `Cc1nnsc1-c1onc(C)c1C(=O)O`, > 4 mM (inactive).
In the case of `Cn1c(=O)cc(N2CCCCC2)[nH]c1=O` it was > 4 mM (inactive); in that of `O=C(O)CCn1c(=O)oc2ccccc21`, > 4 mM (inactive).
Next, `CC(=O)O[C@@H]1CC2C(C)(C)[C@H](O)CC[C@]2(C)C2CC[C@@]3(C)[C@H](c4ccoc4)OC(=O)C4OC43[C@@]21C` (stereo partly specified): > 4 mM (inactive); `CC(=O)c1cccc(NS(=O)(=O)N(C)C)c1`: > 4 mM (inactive); `Cc1cc2cc3c(C)cc(=O)oc3c(C)c2o1`: > 4 mM (inactive).
On to `COC(=O)c1cccc(C(F)(F)F)c1`, for which the Kd is > 4 mM (inactive).
In the case of `NCc1ccc(-c2ccccn2)s1` it was > 4 mM (inactive); in that of `O=c1c(O)cc([C@H]2Oc3cc(O)cc(O)c3C[C@H]2O)cc2c([C@H]3Oc4cc(O)cc(O)c4C[C@H]3O)cc(O)c(O)c12`, > 4 mM (inactive); in that of `CN1CCN(Cc2cccnc2)CC1`, > 4 mM (inactive).
In the case of `COC(=O)c1cc(-c2c(C)nn(-c3ccccc3)c2C)n[nH]1` it was > 4 mM (inactive); in that of `Cc1noc(C)c1C(=O)Nc1ccc2c(c1)CCC2`, > 4 mM (inactive); in that of `COC(=O)Nc1ccc2ncn(C)c(=O)c2c1`, > 4 mM (inactive).
Turning to `COc1c(O)cccc1O`, the Kd is > 4 mM (inactive).
Regarding `Cc1ccc(C)n1/N=C1\NC(=O)CS1`, the Kd was > 4 mM (inactive).
Next, `CC(=O)O[C@H]1C[C@@H](OC(C)=O)C(C)(C)C2C[C@@H](OC(C)=O)[C@]3(C)C(CC[C@@]4(C)[C@H](c5ccoc5)OC(=O)[C@H]5O[C@]543)[C@]21C` (stereo partly specified): > 4 mM (inactive); `NC(N)=NCCCCN=C(N)N`: > 4 mM (inactive).
Next, `Cc1ccc(NC(=O)C2CCCNC2=O)nc1` (stereo unspecified): > 4 mM (inactive); `Cc1cc(O)c(C=O)c(O)c1C(=O)O`: > 4 mM (inactive).
For the compound `CC(=O)N(C)Cc1nc2ccccc2n1C`, the Kd is > 4 mM (inactive).
In the case of `Cn1nnc2cc(CO)ccc21` it was > 4 mM (inactive); in that of `NCCc1ccc(S(N)(=O)=O)cc1`, > 4 mM (inactive).
In the case of `C#CCCCCCCCCCCCC(=O)CC(O)COC(C)=O` (stereo unspecified) it was > 4 mM (inactive); in that of `S=C(NCc1cccnc1)NC1CC1`, > 4 mM (inactive); in that of `NC1=NCc2ccccc21`, > 4 mM (inactive).
For the compound `C[C@H]1C(=O)O[C@@H]2CCN3CC=C(COC(=O)[C@](C)(O)[C@]1(C)O)[C@H]23`, the Kd is > 4 mM (inactive).
In the case of `C[C@@H]1CC[C@@]23CCC4(C)[C@@](C=CC5[C@@]6(C)CC[C@H](O)C(C)(C)C6CC[C@]54C)(OC2=O)C3[C@H]1C` (stereo partly specified), the Kd was > 4 mM (inactive).
In the case of `CC(=O)Nc1ccc(C(=O)NC2=NCCS2)cc1` it was > 4 mM (inactive); in that of `Cc1cc(C(=O)Nc2ccc3c(c2)OCCO3)c(C)o1`, > 4 mM (inactive).
On to `COc1cc(C)c(S(=O)(=O)N2CCN(C)CC2)cc1C`, for which the Kd was > 4 mM (inactive).
In the case of `N#CCc1nc2ccccc2s1` it was > 4 mM (inactive).
Next, `O=C(CC1NC(=O)NC1=O)Nc1ccccc1` (stereo unspecified): > 4 mM (inactive); `NC(=O)C1CCN(CC2CC=CCC2)CC1` (stereo unspecified): > 4 mM (inactive).
Next, `CCOC(=O)CNC(=O)CSc1nnc(C)c(=O)[nH]1`: > 4 mM (inactive); `CC(=O)Nc1ccc2c(c1)CCCC2=O`: > 4 mM (inactive); `COc1ccc([C@H]2COc3c(ccc(O)c3OC)C2)c(OC)c1O`: > 4 mM (inactive).
`S=C(NC1CC1)NN1CCOCC1`: the Kd was > 4 mM (inactive).
In the case of `Cc1cc(C)nc(N2CC(=O)N(C)C2=N)n1` it was > 4 mM (inactive).
Regarding `NC(=O)CC(=O)NC12CC3CC(CC(C3)C1)C2`, the Kd is > 4 mM (inactive).
Next, `COc1cc([C@H]2Oc3cc([C@H]4Oc5cc(O)cc(O)c5C(=O)[C@@H]4O)ccc3O[C@@H]2CO)ccc1O`: > 4 mM (inactive); `NCc1ccc(CN2CCOCC2)cc1`: > 4 mM (inactive); `OCCNC(=S)Nc1ccc(F)cc1`: > 4 mM (inactive).
Consider `CC(=O)c1ccc(N2C(=O)C(C(C)C)NC2=S)cc1` (stereo unspecified), for which the Kd was > 4 mM (inactive).
Next, `O=C1CC(=O)N(Cc2ccco2)C(=S)N1`: > 4 mM (inactive); `O=C(Oc1ccc(-c2nnco2)cc1)N1CCCCC1`: > 4 mM (inactive).
In the case of `Cc1cc(C)n2nc(C(=O)Nc3cccnc3)nc2n1` it was > 4 mM (inactive); in that of `CC(=O)N1CC2(C)CN(C(C)=O)CC(C)(C1)C2`, > 4 mM (inactive).
